Data on three molecules can be found in US11634607B2, “Compositions for containers and other articles and methods of using same” (SWIMC LLC, priority 2011, dated 2023).

Structures are written as SMILES.

The test system of this assay is MCF-7, clone WS8, cells. Briefly: MCF-7 cell proliferation assay of estrogenic activity. Particulars: logarithmic (base 10) Relative Proliferative Effect vs 17-beta estradiol; 'expected or measured' values, not told apart. The format is cell-based, human. An excerpt:
The MCF-7 assay uses MCF-7, clone WS8, cells to measure whether and to what extent a substance induces cell proliferation via estrogen receptor (ER)-mediated pathways. The method is described in “Test Method Nomination: MCF-7 Cell Proliferation Assay of Estrogenic Activity” submitted for validation by CertiChem, Inc. to the National Toxicology Program Interagency Center for the Evaluation of Alternative Toxicological Methods (NICEATM) on Jan. 19, 2006 (available online at http://iccvam.niehs.nih.gov/methods/endocrine/endodocs/SubmDoc.pdf).
A brief summary of the method of the aforementioned MCF-7 assay is provided below. MCF-7, clone WS8, cells are maintained at 37° C. in RMPI (or Roswell Park Memorial Institute medium) containing Phenol Red (e.g., GIBCO Catalog Number 11875119) and supplemented with the indicated additives for routine culture. An aliquot of cells maintained at 37° C. are grown for 2 days in phenol-free media containing 5% charcoal stripped fetal bovine serum in a 25 cm^2 tissue culture flask. Using a robotic dispenser such as an epMotion 5070 unit, MCF-7 cells are then seeded at 400 cells per well in 0.2 ml of hormone-free culture medium in Corning 96-well plates. The cells are adapted for 3 days in the hormone-free culture medium prior to adding the chemical to be assayed for estrogenic activity. The media containing the test chemical is replaced daily for 6 days. At the end of the 7-day exposure to the test chemical, the media is removed, the wells are washed once with 0.2 ml of HBSS (Hanks' Balanced Salt Solution), and then assayed to quantify amounts of DNA per well using a micro-plate modification of the Burton diphenylamine (DPA) assay, which is used to calculate the level of cell proliferation.
RPE is the ratio between the EC50 of the test chemical and the EC50 of the control substance 17-beta estradiol times 100, where EC50 is “effective concentration 50%” or half-maximum stimulation concentration for cell proliferation measured as total DNA in the MCF-7 assay.
In the case of `Oc1ccc(Cc2ccc(O)cc2)cc1` [Bisphenol F], the “Log RPE” value is listed as −2.
For the molecule `C[C@]12CC[C@@H]3c4ccc(O)cc4CC[C@H]3[C@@H]1CC[C@@H]2O` [17β-estradiol], the “Log RPE” value is 2.00.
`O=S(=O)(c1ccc(O)cc1)c1ccc(O)cc1` [Bisphenol S]: the “Log RPE” value is −2.
